Measured values reported in US9511196B2, “Systems and methods for promoting wound healing” (priority 2009, dated 2016).
Read-outs that look alike come from different tables or passages of the source.

Tests used:
[1] = tested on: burn, excisional and surgical incisional wounds; test: Wound healing time in rat wound models (burn, excisional, incisional; normal and diabetic); type: in vivo; details: exogenous gas treatment
Method: (§1) Provided methods and apparatus were tested on second degree burn wounds (normal and diabetic), excisional wounds (normal and diabetic), and surgical incisional wounds (normal and diabetic) in rat models. Various treatment protocols were evaluated and dose and time dependent studies were carried out on normal excisional wounds to determine the [NO] and [ONOO^−] release profile using exogenous NO and CO.
It is believed that gasotransmitters NO, O2 and CO delivered locally to a wound site may influence the healing process via changing the NO/ONOO^− balance. […] As a result, there was a high formation of cytotoxic ONOO^−, which can contribute to wound healing impairment. Accordingly, wounds were exposed individually to either gaseous NO or CO using a modified gas delivery system surrounding an injured area. To determine the efficacy of gas therapy in restoring the NO/ONOO^− balance, treated wounds were subjected to NO and ONOO^− measurements. Also, eNOS and iNOS expression levels were determined using western blotting. Collagen formation and maturation, also wound contraction were investigated and compared to results of untreated wounds.

rat model of wound = type: in vivo
Method: In vivo efficiency of the provided gas delivery system in the process of accelerating wound healing was also tested. For these experiments, a rat model of wound was studied. Indexes of post-ischemic injury included: morphometric analysis, tissue edema, using a laser rate of wound healing process, level of collagen, and breaking strength.

[2] = inhaled for over 30 min; cited from earlier work
2nd degree burn wounds = test: Burn wound model: change in burn wound area after gas treatment; type: in vivo, rat; details: 1000 ppm NO or 250 ppm CO, 15 minutes four times per day; for effect on burn healing compared to untreated burn wound: 10 days
Method: Similar to the rats used for the type I diabetic model, Rats were anesthetized with the mixture of ketamine 50 mg/kg IM and xylazine 5 mg/kg IM administered intraperitoneally. Anesthesia levels were maintained by additional injections of this mixture as needed. Each rat was allowed to breathe spontaneously. Hair was removed from the rats' backs and the backs of the rat were subsequently wiped with 70% ethanol. The standard rat burn model was used in which burns are produced by hot metal used as a heat source. A customized soldering iron was used to cause superficial dermal second-degree burns on. the backs of the rats. […] It was heated to 80° C. and applied to the skin for 10 seconds, which caused second degree burns. Immediately after wounding, the gasket of an exemplary gas delivery system as disclosed herein was bonded to the skin area surrounding each treated wound by means of a thin layer of Skin-Bond® Cement (Smith & Nephew Inc. Largo, Fla. 33773). The animals were then transferred to individual cages for recovery. Rats received an analgesic (Butorphanol 1-2 mg/kg) injected subcutaneously every four hours for a maximum period of 2 days. To prevent dehydration, 1-2 ml of warm sterile saline/100 g of body weight was injected subcutaneously during the recovery period. The treatment procedures described in more detail below were executed in the same way for the burn wound model as the diabetic wound model. After a certain time period, the rats were again anesthetized using the procedure described above and the wounded skin was taken from the backs of these rats for analysis. Then rats were then euthanized with pentothal (150 mg/kg) injected intraperitoneally.
(§2) All gas mixtures were prepared and stored in HandyGrab Tedlar gas sampling bag with capacity of 0.6 liter (Zefon International, St. Petersburg, Fla., cat#HG-PP-06) prior to each treatment. Static mixing with nitrogen as a diluting gas was performed. To prepare nitric oxide mixtures in nitrogen, a sample of 1000 ppm nitric oxide in nitrogen (Airgas Specialty Gases, Chicago, Ill.) was drawn with a 50 cubic centimeters (cc) disposable medical syringe and then transferred to a Tedlar bag through an injection port. Then the appropriate volume of nitrogen (Airgas Inc., Radur, Pa.) was delivered to the bag that was controlled by a Riteflow® flowmeter (Bel-Art Products, Pequannock, N.J.). The same technique was used to prepare carbon monoxide mixtures in nitrogen, but a 1 cc disposable medical syringe was used to dosage pure carbon monoxide (Air Products and Chemicals Inc., Parkersburg, W. Va.). To calculate the concentrations of mixed gases, the following Equation 2 was applied: Cppm=Vc/(Vc+Vd)×10^6·ppm (2) where Vc is the target gas volume and Vd is the dilutant volume.
Once the rats were prepared with a modified gas delivery system in place, 20 cm^3 of nitrogen was purged through whole gas capsule to remove air. Then 20 cm^3 of a therapeutic gas mixture was delivered in a medical syringe to a gas vent, and the gas vent was sealed. The wounds were exposed to gas mixtures for specified period of times (15 minutes to 1 hour). The treatment was repeated four times a day, while the rat was awake and fully ambulatory. Negative control wounds remained uncovered, allowing access of air to the wound site. Positive control wounds were exposed to pure nitrogen, which served as the diluting gas for every mixture prepared. […]

normal excisional wounds = test: Normal excisional wound: wound size after gas treatment; type: in vivo, rat; details: 1000 ppm NO or 250 ppm CO, 15 minutes four times per day; for wound area shrunk to % of initial: day 3; for wound size/area as % of its starting point: day 10
Method: as §1, §2
Once the rats were prepared with a modified gas delivery system in place, 20 cm^3 of nitrogen was purged through whole gas capsule to remove air. Then 20 cm^3 of a therapeutic gas mixture was delivered in a medical syringe to a gas vent, and the gas vent was sealed. The wounds were exposed to gas mixtures for specified period of times (15 minutes to 1 hour). The treatment was repeated four times a day, while the rat was awake and fully ambulatory. Negative control wounds remained uncovered, allowing access of air to the wound site. Positive control wounds were exposed to pure nitrogen, which served as the diluting gas for every mixture prepared.
After a specified time interval (1 day, 3 days, 5 days, 7 days, 10 days), rats were again anesthetized with a mixture of ketamine (50 mg/kg I.M.) and xylazine (5 mg/kg I.M.). The gas delivery system was removed by applying few drops of Uni-Solve® (Smith & Nephew Inc. Largo, Fla. 33773), which enabled the removal of the gas delivery system from the skin. Wounds were then removed using a 6 mm in diameter biopsy punch (Miltex, Inc. York, Pa. cat #33-36). Removed wounds were immediately used to measure the NO and ONOO^− release or frozen in liquid nitrogen to be later subjected to hydroxyproline analysis and western blot analysis or embedded in TBS Tissue Frizzing Medium for histological analysis. After the wounded tissue was removed, the rats were euthanized by injecting pentothal at a dose of 150 mg/kg. The rats were then placed in cold storage in an animal care facility.
In FIG. 9, depicted are changes in wound size of a normal excisional wound after treatment with either NO or CO. The photographs were taken at 1, 3, 5, 7 and 10 days after wounding. Normal excisional wounds were treated with either 1000 ppm NO or 250 ppm of CO gas mixtures for 15 minutes four times per day with at least an hour break between treatments. A marker 305 was placed next to each excisional wound to show the size/area of the original wound. […] A very rapid drop in wound area was observed between the 5th and 7th day of healing. […] At day 10, the wound area/size had decreased to 31%+/−5% of its initial starting point. […] At day 3, the area of the NO treated wound had shrunk to 58±4.9%, and the area of gCO treated wound had shrunk to 63±5.7%, whereas the area of untreated wound decreased to 81±6.1%. By day 10 NO treated wounds were much smaller than the untreated wounds and had decreased in size/area to 15%+/−3.8% of its starting point.

[3] = tested on: diabetic type I excisional wounds; test: Type I diabetes model: excisional wound contraction after gas treatment; type: in vivo, rat; details: for effect on diabetic wound contraction / wound area as % of its initial area / wound size as % of its starting point: 1000 ppm NO or 250 ppm CO, 15 minutes four times per day
Method: Male Sprague-Dawley rats (body weight 400-450 g) were used for these studies, were kept in an animal care facility for 48 h at 21° C. in a temperature controlled room with a 12 h light/dark cycle and 30-70% air-changed humidity. Animals were allowed unlimited access to regular chow food and drinking water. Diabetes type I was induced in rats by injection of streptozotocin (STZ) (65 mg/kg in pH 4.5 citrate buffer, IP). To relieve the pain associated with the intraperitoneal streptozotocin injection, rats were first put under deep anesthesia by injecting (ketamine 50 mg/kg IM, xylazine 5 mg/kg, IM). Anesthesia levels were checked by corneal reflex and toe pinch, and sustained by additional injections of the ketamine and xylazine mixture. After 10 days of streptozotocin injections the blood glucose levels were measured to determine if the rats could be considered diabetic. If the blood glucose level was above 300 mg/dL, the rat was considered diabetic. Rats were fasted overnight before the glucose level was measured. After injecting anesthesia, the tip of the tail was sterilized by wiping it with 70% alcohol. Approximately 2 mm of the tail was cut off to withdraw a sample of blood (35 μl), and the tip was compressed for 45-60 seconds to stop the bleeding.
The diabetic rats were then anesthetized (if needed) with a mixture of ketamine (50 mg/kg I.M.) and xylazine (5 mg/kg I.M.) administered intraperitoneally. Once anesthetized, hair was removed from the rats' backs using an electric razor and the backs of the rat were subsequently wiped with a 70% ethyl alcohol swab. On either side of the midline of the rat's back, four excision wounds were made with a sterile about 5 mm in diameter Biopsy Punch (Miltex, Inc. York, Pa. cat#33-35). The resulting wounds were approximately 4 mm deep and were deprived of epidermis, dermis and subcutaneous fat. Immediately after wounding, the gasket of an exemplary gas delivery system as disclosed herein was bonded to the skin area surrounding each treated wound by means of a thin layer of Skin-Bond® Cement (Smith & Nephew Inc. Largo, Fla. 33773).
After the surgery and during the recovery period from anesthesia, rats were turned from side to side to avoid pulmonary edema and to ensure unobstructed breathing. The rats were transferred to cages lined with sterile drape and contained moist food. To minimize any stress associated with pain, the rats were injected subcutaneously with analgesic (Butorphanol 1-2 mg/kg) every four hours for a maximum period of 2 days. Additionally, 1-2 ml of warm sterile saline/100 g of body weight was injected subcutaneously during the recovery period to prevent dehydration. Once the rats were completely awake, they were placed in cages with free access to food and drinking water. During the postoperative care period, rats were monitored for signs of infection, or self inflicted trauma. Additionally food and water intake was monitored. The diabetic rats were subjected to treatment as described below.
as §2, with “To calculate the concentrations of mixed gases, the following Equation 2 was applied: Cppm=Vc/(Vc+Vd)×10^6·ppm (2) where Vc is the target gas volume and Vd is the dilutant volume.” left out

[4] = about 50-1000 ppm NO, about 50-250 ppm CO, about 100% O2

| Compound | decreased wound healing time (versus control, untreated) [1] | wound healing in a single gas treatment (rat model of wound; [4]) | concentration believed to be dangerous when inhaled [2] | effect on burn healing compared to untreated burn wound (2nd degree burn wounds) | increase of burn wound area (2nd degree burn wounds; day 10) | effect on normal excisional wound contraction (normal excisional wounds) | wound area shrunk to % of initial (normal excisional wounds) [%] | wound size/area as % of its starting point (normal excisional wounds) | effect on diabetic wound contraction [3] | wound area as % of its initial area ([3]; day 5) [%] | wound size as % of its starting point ([3]; day 10) | increase of burn wound area (2nd degree burn wounds; day 3) [%] | wound area as % of its initial area ([3]; day 7) [%] | size difference between treated and untreated diabetic excisional wounds ([3]; day 10) [%] | wound healing in a single gas treatment (rat model of wound; rat, in vivo) |
| --- | --- | --- | --- | --- | --- | --- | --- | --- | --- | --- | --- | --- | --- | --- | --- |
| [C-]#[O+] [CO, carbon monoxide] | at least 20% | good results | higher than 1500 ppm | reduced swelling and accelerated burn healing process | roughly 67.1%+/−3.5 | accelerated wound contraction and resulted in a significant decrease in wound size | 63±5.7 | 22.2%+/−3.3 | some influence on wound contraction | 82.6±3.7 | 41.4%+/−2.8 | – | – | – | – |
| [N]=O [NO, nitric oxide] | 30-50% | good results | > 500 ppm | reduced swelling and accelerated burn healing process | roughly 58.0%+/−3.1 | accelerated wound contraction and resulted in a significant decrease in wound size | 58±4.9 | 15%+/−3.8 | accelerated wound contraction and stimulated wound repair | – | 29.8%+/−2.5 | 76.3±4.2 | 57.8±3.1 | ~17 | – |
| O=O [O2, Oxygen] | – | – | – | – | – | – | – | – | – | – | – | – | – | – | good results |
